This is an account of results in the Biogen ADME set (Fang et al. 2023).

For the data set the following is noted: for aqueous solubility: pH 6.8.

Each structure is given as a SMILES string. Values after ≈ are worked out from the molar mass of the structure shown.

In turn, `CCc1nc2ccccc2n1CC(=O)Nc1cnc2ccccc2c1` displayed an intrinsic clearance, human liver microsomes of 1.28 L/h/kg and an intrinsic clearance, rat liver microsomes of 11.3 L/h/kg.
As to `COc1ccc(CNC(=O)c2sc3nc(C)cc(C)c3c2N)cc1`, the MDR1-MDCK efflux ratio worked out at 0.386; the fraction unbound, human plasma came out at 0.0044; the fraction unbound, rat plasma turned out to be 0.00657; the intrinsic clearance, human liver microsomes amounted to 2.64 L/h/kg. The same compound had an intrinsic clearance, rat liver microsomes of 33.5 L/h/kg.
Take `CCN(C(=O)N1CCC(OC2CCOCC2)CC1)C(C)C`: the MDR1-MDCK efflux ratio worked out at 0.763; the intrinsic clearance, human liver microsomes is 1.3 L/h/kg; the intrinsic clearance, rat liver microsomes came to 9.29 L/h/kg; the aqueous solubility stood at 0.0561 mg/mL (≈ 188 µM).
As to `CN(CCc1ccncc1)c1ncccc1C#N`, the MDR1-MDCK efflux ratio came out at 0.743; the intrinsic clearance, human liver microsomes stood at 2.66 L/h/kg; the intrinsic clearance, rat liver microsomes was determined as 33.1 L/h/kg.
In the case of `CNCCN1CCC(OCc2ccccc2)CC1`, the intrinsic clearance, human liver microsomes turned out to be 2.79 L/h/kg; the intrinsic clearance, rat liver microsomes is 8.55 L/h/kg; the aqueous solubility worked out at 0.055 mg/mL (≈ 222 µM).
`O=C(c1cc(F)ccc1O)N1CCN(C2CCOCC2)CC1` gave an intrinsic clearance, human liver microsomes not above 0.284 L/h/kg and an intrinsic clearance, rat liver microsomes of 12 L/h/kg.
Take `O=C(O)c1ccccc1-c1ccc(CN2CCCCC2)cc1`: the MDR1-MDCK efflux ratio was found to be 4.17; the intrinsic clearance, human liver microsomes is not above 0.284 L/h/kg; the intrinsic clearance, rat liver microsomes stood at 3.26 L/h/kg; the aqueous solubility was 0.0919 mg/mL (≈ 311 µM).
The like results for `Cc1cc(C)nc(NCc2cnc(C)c(C)c2)n1` were, in that order, 0.622, 0.752 L/h/kg, 9.74 L/h/kg and 0.0133 mg/mL (≈ 54.9 µM).
As to `CCCc1nnc(N2CCC3(CCCC3)C2)s1`, the MDR1-MDCK efflux ratio was found to be 0.525; the intrinsic clearance, human liver microsomes is 5.2 L/h/kg; the intrinsic clearance, rat liver microsomes is 129 L/h/kg.
For the compound `Cc1noc2ncc(C(=O)Nc3nc(C4CC4)cs3)cc12`, the MDR1-MDCK efflux ratio worked out at 0.511; the intrinsic clearance, human liver microsomes was found to be 5.39 L/h/kg; the intrinsic clearance, rat liver microsomes was 22.6 L/h/kg; the aqueous solubility was 0.0115 mg/mL (≈ 38.3 µM).
The like results for `Cc1ccc(CNC(=O)CN2CCC(n3nnc4cc(C)ccc43)CC2)cc1` were, in that order, 3.73, 9.28 L/h/kg, 90.8 L/h/kg and 0.0302 mg/mL (≈ 79.9 µM).
The like results for `CCN(C(=O)CN1CCNC(=O)C1)c1ccc(F)cc1` were, in that order, 49.4, not above 0.284 L/h/kg, not above 0.64 L/h/kg and 0.0348 mg/mL (≈ 125 µM).
As for `CN(C(=O)c1cc2ccc(C(C)(C)C)cc2[nH]1)C1(C#N)CCC1`, the MDR1-MDCK efflux ratio worked out at 0.492 and the aqueous solubility is 0.00022 mg/mL (≈ 0.711 µM).
As for `COCC1(C(=O)N(C)Cc2ccc3ccccc3n2)CCC1`, the MDR1-MDCK efflux ratio came to 1.14; the intrinsic clearance, human liver microsomes is 3.6 L/h/kg; the intrinsic clearance, rat liver microsomes turned out to be 251 L/h/kg.
As to `Cc1cccc(NCC2CCN(C(=O)c3ccccc3)CC2)n1`, the MDR1-MDCK efflux ratio amounted to 1.18; the intrinsic clearance, human liver microsomes was 0.791 L/h/kg; the intrinsic clearance, rat liver microsomes turned out to be 66.6 L/h/kg; the aqueous solubility turned out to be 0.0285 mg/mL (≈ 92.1 µM).
Turning to `COC(=O)N1CC(NCc2c(C)nn(C(C)(C)C)c2C)C1`, the MDR1-MDCK efflux ratio is 1.79; the intrinsic clearance, human liver microsomes is not above 0.284 L/h/kg; the intrinsic clearance, rat liver microsomes is 3.67 L/h/kg.
For `CC(C)n1nnnc1-c1ccc(N)cc1F`, the MDR1-MDCK efflux ratio is 0.63; the intrinsic clearance, human liver microsomes is not above 0.284 L/h/kg; the intrinsic clearance, rat liver microsomes was 2.41 L/h/kg; the aqueous solubility was 0.0235 mg/mL (≈ 106 µM).
On to `c1ccc2c(c1)nnn2Cc1ccc2c(c1)OCO2`, for which the MDR1-MDCK efflux ratio is 0.581 and the aqueous solubility stood at 0.00096 mg/mL (≈ 3.79 µM).
On to `CC(=O)N1CCc2cc(Nc3nccc(C(F)(F)F)n3)ccc21`, for which the intrinsic clearance, human liver microsomes was 7.82 L/h/kg; the intrinsic clearance, rat liver microsomes was found to be 16.3 L/h/kg; the aqueous solubility was 0.0012 mg/mL (≈ 3.72 µM).
Consider `CC1(CNC(=O)N2CCN(Cc3ccon3)CC2)CCCC1`, for which the MDR1-MDCK efflux ratio worked out at 2.07; the intrinsic clearance, human liver microsomes was found to be 0.445 L/h/kg; the intrinsic clearance, rat liver microsomes worked out at 18.5 L/h/kg.
Regarding `Cc1ccnc2[nH]c(CSCc3ccccc3)nc12`, the intrinsic clearance, human liver microsomes turned out to be 5.06 L/h/kg and the intrinsic clearance, rat liver microsomes is 38.8 L/h/kg.
For `O=C(CN1CCc2ccccc21)N1CCNC1=O`, the MDR1-MDCK efflux ratio was found to be 0.72; the intrinsic clearance, human liver microsomes was not above 0.284 L/h/kg; the intrinsic clearance, rat liver microsomes amounted to 0.974 L/h/kg; the aqueous solubility was found to be 0.0275 mg/mL (≈ 112 µM).
As to `CC(=O)c1ccc2c(c1)CCN(CCC1OCCO1)CC2`, the MDR1-MDCK efflux ratio worked out at 0.527; the intrinsic clearance, human liver microsomes is 0.498 L/h/kg; the intrinsic clearance, rat liver microsomes stood at 3.37 L/h/kg.
The like results for `C1CN(c2nc3c(c(N4CCSCC4)n2)SCC3)CCS1` were, in that order, 0.383, 7.54 L/h/kg and 91.6 L/h/kg.
Take `COc1ccc(C2(NCc3cccc4ncccc34)CC2)cc1`: the MDR1-MDCK efflux ratio is 0.483; the intrinsic clearance, human liver microsomes was 15.7 L/h/kg; the intrinsic clearance, rat liver microsomes came to 80.3 L/h/kg; the aqueous solubility turned out to be 0.0555 mg/mL (≈ 182 µM).
Regarding `C[C@@H]1CN(Cc2ccccc2)C[C@H]1c1nc2c(cnn2C2CCOCC2)c(=O)[nH]1`, the MDR1-MDCK efflux ratio is 14.3; the intrinsic clearance, human liver microsomes stood at 2.18 L/h/kg; the intrinsic clearance, rat liver microsomes is 19.3 L/h/kg.
With `c1nc(N2CCC3(CCCCC3)C2)c2cn[nH]c2n1`, the MDR1-MDCK efflux ratio amounted to 0.8; the intrinsic clearance, human liver microsomes worked out at 0.5 L/h/kg; the intrinsic clearance, rat liver microsomes came out at 42.6 L/h/kg.
For `CCn1c(CN2CCCCCC2)nc2ccccc2c1=O`, the MDR1-MDCK efflux ratio stood at 0.561; the intrinsic clearance, human liver microsomes turned out to be 1.54 L/h/kg; the intrinsic clearance, rat liver microsomes came to 135 L/h/kg.
The like results for `CC(C)Oc1ccc(C#N)cc1NC1CCN(C)CC1` were, in that order, 2.51, not above 0.284 L/h/kg and 6.01 L/h/kg.
Compound `CN(C)c1cccc(C2CCN(c3ncccn3)CC2)n1` registered an intrinsic clearance, human liver microsomes of 5.66 L/h/kg; an intrinsic clearance, rat liver microsomes of 135 L/h/kg; an aqueous solubility of 0.0169 mg/mL (≈ 59.5 µM).
As to `CCNc1ccnc(-c2cccc(C(=O)NCCCc3cnn(C)c3)c2)n1`, the MDR1-MDCK efflux ratio amounted to 39.2; the intrinsic clearance, human liver microsomes was 1.57 L/h/kg; the intrinsic clearance, rat liver microsomes stood at 38 L/h/kg.
The like results for `c1ccc(-c2ncc(CNc3ncccn3)s2)nc1` were, in that order, 0.641, 2.43 L/h/kg and 124 L/h/kg.
Take `CC(C(O)c1ccc(O)cc1)N1CCC(Cc2ccccc2)CC1` (configuration not stated): the MDR1-MDCK efflux ratio came out at 1.08; the intrinsic clearance, human liver microsomes was found to be 8.97 L/h/kg; the intrinsic clearance, rat liver microsomes turned out to be 57.6 L/h/kg; the aqueous solubility worked out at 0.0517 mg/mL (≈ 159 µM).

Usually aqueous solubility stands for the concentration that dissolves in the medium under given conditions. Higher therefore signals much dissolved substance.
